Measurements taken from patent US11098257B2, “Bioderived fuels and methods of making the same” (Alliance for Sustainable Energy, LLC, priority 2019, dated 2021).
≈ marks a conversion by molar mass, not a printed value.

Experiments:
Assay type in all cases: physicochemical
[1] = Water solubility, ether in aqueous layer by GC/MS; details: thermodynamic from solid; purified ether, water saturated 1:5 by volume, left overnight
Description: Water Solubility. […] The mixed samples were left overnight to separate and the amount of ether in the aqueous layer was determined by GC/MS.

[2] = Storage stability aging per ASTM D4625, GC-MS profile; details: GC-MS profile after 6 weeks of aging (simulating 6 months)
Description: Storage stability testing. Aging conditions to test storage stability of the target ether are based on the procedure of ASTM D4625 Standard Test Method for Middle Distillate Fuel Storage Stability. This method accelerates the oxidation rate of diesel fuel by approximately 4-fold, with one week under these conditions equivalent to approximately one month of storage at 21° C. It should be noted that this degree of acceleration has not been validated for ethers, but nonetheless provides a standard protocol for diesel range sample aging. Aging was conducted for 6 weeks (simulating 6 months) with measurement of peroxide concentration at 2-week intervals. Peroxide concentration was measured following AOCS method Cd 8b-90, modified for potentiometric end point detection and smaller sample size. A sample of isoamyl ether (>99%, non-stabilized, Sigma-Aldrich) was aged alongside the 4-butoxyheptane for comparison. Samples of 4-butoxyheptane before and after aging were analyzed by gas chromatography with mass spectrometry (GC-MS) in an attempt to identify components produced by oxidation (see Table 11 below). The ether samples were diluted volumetrically in acetone 1:10. Analysis was conducted with an Agilent 7890A GC coupled with an Agilent 5975C mass selective detector (MSD). […]

[3] = Lower heating value from bomb calorimeter HHV (D240) and hydrogen content; details: measured value
Description: Heating Values. HHV was found using a bomb calorimeter to combust 15 mL of sample (D240), with LHV calculated using sample hydrogen content (D240, Section 10.5.1) measured using a LECO TruSpec CHN determinator. To find hydrogen content, samples were combusted in excess oxygen at 950° C. The amount of CO2 and H2O produced could then be quantified using IR and using an EDTA calibration standard the hydrogen wt % could be extracted.

[4] = Rapid small-scale oxidation test (RSSOT), PetroOxy induction time
Description: The next important consideration is that of safety and fuel quality upon storage of the novel blendstock. Oxidation stability of 4-butoxyheptane was examined experimentally. Two distinct characterizations were performed regarding oxidation potential during storage. The first utilized a rapid small-scale oxidation test (RSSOT) using a PetroOxy instrument to determine induction time, which indicates the potential for a fuel to oxidize during storage, which may result in quality degradation from formation of low molecular weight acids and insoluble polymers.

Flash point measurement = details: measured value
Description: Flash point. D7094 was used to measure Tflash with an average error of ±1.3° C.

[5] = Boiling point (simulated distillation T90 D2887; blend by TGA); details: measured value
Excerpt: Boiling Point. Tboil of pure was estimated using T90 of a simulated distillation (D2887), with blend Tboil determined using thermogravimetric analysis (TGA).

SMILES	solubility [1]	% Total Area [2]	Lower Heating Value [3]	Lower Heating Value ([3]; listed as drawing 5)	induction period ([4]; neat ether, no antioxidant)	induction period with antioxidant ([4]; with 100 ppm butylated hydroxytoluene (BHT))	Flashpoint (Flash point measurement)	Boiling Point [5]
CCCCOC(CCC)CCC [4-butoxyheptane]	15 µg/mL (≈ 87.1 µM)	94.90%	39.2 mJ/kg	39 mJ/kg	about 23 minutes	> 60 min	64 °C	198 °C
CCCCCC(CCCCC)OCC [6-ethoxyundecane]	–	–	42 mJ/kg	–	–	–	83 °C	236 °C
CCCCCCOC(CCC)CCC [4-hexoxyheptane]	–	–	43 mJ/kg	–	–	–	68 °C	234 °C
